# Data taken from ChEMBL document CHEMBL3880382, “TRH-like peptide derivatives as inhibitors of the TRH-degrading ectoenzyme” (2010).
# Active and inactive are the calls of the source. The rule behind the calls is not given here. Non-standard residues stand in square brackets, D forms with d. Residues, ends and D or L forms follow the SMILES beside them. *: point of attachment. AMC = Cc1cc(=O)oc2cc(N*)ccc12; pGlu = O=C1CC[C@@H](C(=O)O)N1
# Assays:
# Rattus norvegicus [1] = test: Behavioral effect in cannulated Wistar rat assessed as number of wet dog shakes at 10 mg/kg, ip measured every 5 mins for 30 secs during 40 mins observation period; format: functional
# [2] = biological target: T1, Thyrotropin-releasing hormone-degrading ectoenzyme (Homo sapiens, UniProt Q9UKU6); test: Competitive inhibition of TRH-DE (unknown origin)
# T1 sequence (Q9UKU6 whole entry): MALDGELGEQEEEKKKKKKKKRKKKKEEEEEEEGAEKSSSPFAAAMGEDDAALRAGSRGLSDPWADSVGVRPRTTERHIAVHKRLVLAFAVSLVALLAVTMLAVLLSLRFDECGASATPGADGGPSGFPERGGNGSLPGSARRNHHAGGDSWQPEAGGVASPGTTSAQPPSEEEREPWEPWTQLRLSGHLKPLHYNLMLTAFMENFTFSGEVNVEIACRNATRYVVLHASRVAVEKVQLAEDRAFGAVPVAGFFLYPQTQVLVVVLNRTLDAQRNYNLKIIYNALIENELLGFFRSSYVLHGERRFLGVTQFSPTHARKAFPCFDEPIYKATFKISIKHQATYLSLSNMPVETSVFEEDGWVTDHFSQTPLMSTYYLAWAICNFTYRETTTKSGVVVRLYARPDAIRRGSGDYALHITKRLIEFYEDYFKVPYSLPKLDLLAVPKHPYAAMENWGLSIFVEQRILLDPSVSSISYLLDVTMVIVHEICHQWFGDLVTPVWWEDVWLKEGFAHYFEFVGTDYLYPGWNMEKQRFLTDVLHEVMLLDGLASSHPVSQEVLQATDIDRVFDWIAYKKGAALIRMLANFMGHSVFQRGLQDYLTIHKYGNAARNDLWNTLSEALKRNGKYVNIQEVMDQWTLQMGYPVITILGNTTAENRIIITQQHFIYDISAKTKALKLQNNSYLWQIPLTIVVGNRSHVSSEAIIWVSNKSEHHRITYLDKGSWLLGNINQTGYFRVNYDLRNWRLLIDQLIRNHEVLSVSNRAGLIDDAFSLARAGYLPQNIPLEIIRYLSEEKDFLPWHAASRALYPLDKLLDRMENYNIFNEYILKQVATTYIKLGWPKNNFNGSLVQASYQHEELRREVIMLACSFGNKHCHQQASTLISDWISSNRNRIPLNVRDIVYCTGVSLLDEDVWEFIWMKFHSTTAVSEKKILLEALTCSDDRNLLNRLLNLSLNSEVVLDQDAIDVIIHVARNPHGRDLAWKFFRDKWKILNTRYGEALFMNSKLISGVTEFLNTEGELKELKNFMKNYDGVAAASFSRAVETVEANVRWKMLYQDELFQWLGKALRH
# [3] = biological target: T2, Thyrotropin-releasing hormone receptor (Rattus norvegicus, UniProt Q01717); test: Displacement of [3H]-3MeHis-TRH from TRH receptor in Sprague-Dawley rat cortical membranes
# T2 sequence (Q01717 whole entry): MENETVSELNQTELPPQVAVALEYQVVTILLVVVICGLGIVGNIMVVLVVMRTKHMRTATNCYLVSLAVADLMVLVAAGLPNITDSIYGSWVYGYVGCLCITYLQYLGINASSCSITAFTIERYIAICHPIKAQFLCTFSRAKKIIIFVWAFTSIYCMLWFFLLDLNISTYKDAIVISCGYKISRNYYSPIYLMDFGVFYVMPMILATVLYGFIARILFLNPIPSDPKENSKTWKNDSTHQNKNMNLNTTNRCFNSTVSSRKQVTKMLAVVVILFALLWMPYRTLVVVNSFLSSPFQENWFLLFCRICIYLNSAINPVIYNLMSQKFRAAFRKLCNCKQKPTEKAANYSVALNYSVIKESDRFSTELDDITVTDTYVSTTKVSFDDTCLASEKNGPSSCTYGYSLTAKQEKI
# Rattus norvegicus [4] = test: In vivo inhibition of TRH-DE in cannulated Wistar rat assessed as increase in TRH-mediated grooming at 10 mg/kg, ip measured every 5 mins for 30 secs during 40 mins observation period; format: functional, organism-based
# Rattus norvegicus [5] = test: In vivo inhibition of TRH-DE in cannulated Wistar rat assessed as increase in TRH-mediated wet dog shakes at 10 mg/kg, ip measured for last 25 mins of the 40 mins observation period; format: functional, organism-based
# Rattus norvegicus [6] = test: In vivo inhibition of TRH-DE in cannulated Wistar rat assessed as increase in TRH-mediated chewing at 10 mg/kg, ip measured every 5 mins for 30 secs during 40 mins observation period; format: functional, organism-based
# [7] = biological target: Thyrotropin releasing hormone degrading enzyme (Sus scrofa, UniProt A0A287AP33); test: Inhibition of pig brain TRH-DE using Glp-His-ProAMC as substrate by DPP-4-based continuous fluorometric method
# Sequence of Thyrotropin releasing hormone degrading enzyme (A0A287AP33 whole entry): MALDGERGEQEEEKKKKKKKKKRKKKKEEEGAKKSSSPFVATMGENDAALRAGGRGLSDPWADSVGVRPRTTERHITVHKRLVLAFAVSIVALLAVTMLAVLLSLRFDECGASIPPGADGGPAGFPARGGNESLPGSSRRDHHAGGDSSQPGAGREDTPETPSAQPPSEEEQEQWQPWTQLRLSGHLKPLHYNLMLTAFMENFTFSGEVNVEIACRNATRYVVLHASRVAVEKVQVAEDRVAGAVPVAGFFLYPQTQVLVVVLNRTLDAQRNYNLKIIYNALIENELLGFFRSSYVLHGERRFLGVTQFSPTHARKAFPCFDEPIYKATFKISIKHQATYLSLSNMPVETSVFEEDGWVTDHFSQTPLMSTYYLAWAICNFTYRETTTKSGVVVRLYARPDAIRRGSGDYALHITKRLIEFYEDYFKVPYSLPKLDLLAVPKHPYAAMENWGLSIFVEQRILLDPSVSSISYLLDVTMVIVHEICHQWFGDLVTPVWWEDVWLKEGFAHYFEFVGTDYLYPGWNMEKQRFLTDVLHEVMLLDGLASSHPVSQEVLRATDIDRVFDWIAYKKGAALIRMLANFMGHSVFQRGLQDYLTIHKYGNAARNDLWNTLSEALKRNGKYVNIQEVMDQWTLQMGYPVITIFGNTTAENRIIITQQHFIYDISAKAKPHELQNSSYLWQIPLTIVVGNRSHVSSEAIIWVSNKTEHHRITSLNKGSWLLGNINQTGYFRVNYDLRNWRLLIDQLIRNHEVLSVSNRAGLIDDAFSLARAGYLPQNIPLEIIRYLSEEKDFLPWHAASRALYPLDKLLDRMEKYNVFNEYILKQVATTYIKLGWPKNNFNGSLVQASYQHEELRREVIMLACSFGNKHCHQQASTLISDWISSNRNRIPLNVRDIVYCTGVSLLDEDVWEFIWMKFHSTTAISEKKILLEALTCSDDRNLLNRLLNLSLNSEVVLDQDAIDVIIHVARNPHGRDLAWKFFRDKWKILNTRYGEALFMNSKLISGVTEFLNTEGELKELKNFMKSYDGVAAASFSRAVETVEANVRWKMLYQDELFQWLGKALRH
# [8] = biological target: T3, Thyrotropin releasing hormone degrading enzyme (Sus scrofa) (UniProt A0A287AP33); test: Inhibition of pig brain TRH-DE at 1 uM using Glp-His-ProAMC as substrate by DPP-4-based continuous fluorometric method
# T3 sequence (A0A287AP33 as listed by the source): as the sequence (A0A287AP33 whole entry) above
# Rattus norvegicus [9] = test: In vivo inhibition of TRH-DE in cannulated Wistar rat assessed as increase in TRH-mediated sniffing at 10 mg/kg, ip measured every 5 mins for 30 secs during 40 mins observation period; format: functional, organism-based
# Rattus norvegicus [10] = test: In vivo inhibition of TRH-DE in cannulated Wistar rat assessed as increase in TRH-mediated wet dog shakes at 5 ug in 1 ul, icv followed by TRH addition measured after 30 mins relative to control; format: functional
# [11] = biological target: T3, Thyrotropin releasing hormone degrading enzyme (Sus scrofa); test: Reversible inhibition of pig brain TRH-DE using Glp-His-ProAMC as substrate at 1 uM preincubated for 75 mins by DPP-4-based continuous fluorometric method
Ki [2] [µM],Ki [3] [µM],Ki [7] [µM],inhibition [8] [%],inhibition [11],Compound,Activity (Rattus norvegicus [1]),inhibition (Rattus norvegicus [4]),inhibition (Rattus norvegicus [5]),inhibition (Rattus norvegicus [6]),inhibition (Rattus norvegicus [9]),fold change (FC) (Rattus norvegicus [10])
8,0.0224,,,,O=C(O)C(Cc1ccccc1)N[C@@H](Cc1cn(Cc2ccccc2)cn1)C(=O)Nc1ccc2ccccc2c1 (some centres not stated),0,,,,,
,47.9,0.41 to 0.97,50,Active,Cc1cc(=O)oc2cc(NC(=O)[C@@H]3CCCN3C(=O)[C@H](CC(N)=O)NC(=O)[C@@H]3CCC(=O)N3)ccc12 ([pGlu]-Asn-Pro-{AMC}),,Active,Active,Active,Active,18
